Measurements taken from patent US20140328809A1, “METHODS OF INDUCING CHONDROGENESIS IN MESENCHYMAL STEM CELLS USING SYNTHETIC TRITERPENOIDS” (TRUSTEES OF DARTMOUTH COLLEGE, priority 2011, published 2014).

Assays:
newborn mouse calvaria = assay: Histological analysis (toluidine blue) of chondrogenesis in newborn mouse calvarial organ cultures; type: cell-based; details: 200 nM, 7 days, FIG. 1a, at least 3 sets of replicate experiments
Method: (§1) All chemicals were from Sigma-Aldrich. Primers for RT-PCR were from Applied Biosystems. The isolation of calvaria was essentially performed as described previously (Garrett, 2003; Garret et al., 2003). The calvaria were cultured in Biggers, Gwatkins, Judah medium supplemented with 1 mg/mL of bovine serum albumin (Cohn fraction V), 100 U/mL each of penicillin/streptomycin, and 0.292 mg/mL of glutaimine. On Day 1, the calvaria were treated with CDDO-Im or CDDO-EA. On Day 4, the medium was replaced with fresh medium, again containing either CDDO-Im or CDDO-EA. On Day 7, the calvaria were collected and either stored at −80° C. for further RNA analysis or fixed in 10% buffered formalin for 24 h and transferred to 80% ethanol for histological analysis.
(§2) After fixation for 24 h, the calvaria were decalcified in EDTA, embedded in paraffin, and cut into 4 μm sections. The sections were stained either with modified hematoxylin and eosin or with toluidine blue (1% in 70% ethanol for 20 min, followed by destaining in 70%, 90%, and 100% ethanol for 15 seconds), placed in xylene twice, and then mounted (Garret, 2003). Procedures for immunofluroescence were performed essentially as previously described (Medici et al., 2010). […]

BMPRII = assay: Quantitative RT-PCR analysis on calvaria: BMPRII; type: cell-based, mouse; details: 7 days of culture, normalized to control = 1.00
Method: as §1
(§3) After 7 days of culture, RNA was isolated from the calvaria and quantitative RT-PCR analysis was performed for more than 15 different markers including: SOX9 (a transcription factor specific for cartilage), collagen type II (alpha 1), all three isoforms of TGF-β, BMPs 2 and 4, BMP receptor II, Smads 3, 4, 6, and 7, tissue inhibitors of metalloproteinases (TIMP-1 and TIMP-2), and matrix metalloproteinase-9 (MMP-9). […] Both triterpenoids are strong inhibitors of the expression of MMP-9; CDDO-EA (200 nM), caused almost 80% inhibition of the expression of this metalloproteinase, which is known to be involved in the degradation of cartilage (Shinoda et al., 2008).

Smad4 = assay: Quantitative RT-PCR analysis on calvaria: Smad4; type: cell-based, mouse; details: 7 days of culture, normalized to control = 1.00
Method: as §1, §3

Smad7 = assay: Quantitative RT-PCR analysis on calvaria: Smad7; type: cell-based, mouse; details: 7 days of culture, normalized to control = 1.00
Method: as §1, §3

COL2A1 = assay: Western blot of chondrocyte marker COL2A1 in bone marrow-derived MSCs; type: cell-based, human; details: 100 nM for 7 days; MSCs in chondrogenic culture medium; not detectable in control
Method: (§4) Human bone marrow-derived stromal cells (ScienCell Research Laboratories), which contain a population of responsive mesenchymal stem cells, were grown in mesenchymal stem cell medium (ScienCell Research Laboratories). MSCs were serum-starved 24 hours prior to all experimental conditions. The synthesis of the synthetic triterpenoids, CDDO-Im and CDDO-EA, have been previously described (Sporn et al., 2011).
(§5) For directed chondrocytic differentiation, MSCs were grown in StemPro chondrogenic culture medium (Invitrogen) prepared by the technique of Kassem (2004), which is incorporated herein by reference. See also Medici et al. (2010), which is also incorporated herein by reference. CDDO-Im and CDDO-EA were added to the cultures at a concentration of 100 nM for 7 days. Western blot analysis was performed using the following antibodies at concentrations (and using protocols) recommended by the respective manufacturers: SOX9, COL2A1 (Santa Cruz Biotechnology), Aggrecan (Abcam), β-actin (Sigma-Aldrich). β-actin was used as a loading control. HRP-conjugated IgG TrueBlot reagents (eBioscience) were used at a dilution of 1:1000.

TGF-β2 = assay: Quantitative RT-PCR analysis on calvaria: TGF-β2; type: cell-based, mouse; details: 7 days of culture, normalized to control = 1.00
Method: as §1, §3

Smad6 = assay: Quantitative RT-PCR analysis on calvaria: Smad6; type: cell-based, mouse; details: 7 days of culture, normalized to control = 1.00
Method: as §1, §3

MMP-9 = assay: Quantitative RT-PCR analysis on calvaria: MMP-9; type: cell-based, mouse; details: for MMP-9 expression (quantitative RT-PCR): 7 days of culture, normalized to control = 1.00
Method: as §1, §3

Smad3 = assay: Quantitative RT-PCR analysis on calvaria: Smad3; type: cell-based, mouse; details: 7 days of culture, normalized to control = 1.00
Method: as §1, §3

Col II alpha1 = assay: Quantitative RT-PCR analysis on calvaria: Col II alpha1; type: cell-based, mouse; details: 7 days of culture, normalized to control = 1.00
Method: as §1, §3

Aggrecan = assay: Western blot of chondrocyte marker Aggrecan in bone marrow-derived MSCs; type: cell-based, human; details: 100 nM for 7 days; MSCs in chondrogenic culture medium; not detectable in control
Method: as §4, §5

TGF-β1 = assay: Quantitative RT-PCR analysis on calvaria: TGF-β1; type: cell-based, mouse; details: 7 days of culture, normalized to control = 1.00
Method: as §1, §3

BMP-4 = assay: Quantitative RT-PCR analysis on calvaria: BMP-4; type: cell-based, mouse; details: 7 days of culture, normalized to control = 1.00
Method: as §1, §3

SOX-9 = assay: Quantitative RT-PCR analysis on calvaria: SOX-9; type: cell-based, mouse; details: 7 days of culture, normalized to control = 1.00
Method: as §1, §3

SOX9 = assay: Western blot of chondrocyte marker SOX9 in bone marrow-derived MSCs; type: cell-based, human; details: 100 nM for 7 days; MSCs in chondrogenic culture medium; not detectable in control
Method: as §4, §5

TGF-β3 = assay: Quantitative RT-PCR analysis on calvaria: TGF-β3; type: cell-based, mouse; details: 7 days of culture, normalized to control = 1.00
Method: as §1, §3

TIMP-2 = assay: Quantitative RT-PCR analysis on calvaria: TIMP-2; type: cell-based, mouse; details: 7 days of culture, normalized to control = 1.00
Method: as §1, §3

BMP-2 = assay: Quantitative RT-PCR analysis on calvaria: BMP-2; type: cell-based, mouse; details: 7 days of culture, normalized to control = 1.00
Method: as §1, §3

TIMP-1 = assay: Quantitative RT-PCR analysis on calvaria: TIMP-1; type: cell-based, mouse; details: 7 days of culture, normalized to control = 1.00
Method: as §1, §3

[1] = tested on: collagen type II (COL2A1); assay: Immunohistochemical analysis of collagen type II in calvaria; type: cell-based, mouse; details: 200 nM, FIG. 1b
Method: as §1, §2

CCNC(=O)[C@]12CCC(C)(C)C[C@H]1[C@H]1C(=O)C=C3[C@@]4(C)C=C(C#N)C(=O)C(C)(C)[C@@H]4CC[C@@]3(C)[C@]1(C)CC2 [CDDO-EA, CDDO-Ethyl amide]
induction of chondrogenesis (metachromatic toluidine blue purple staining, proteoglycans) (newborn mouse calvaria): marked ability to induce chondrogenesis
BMPRII expression (quantitative RT-PCR) (BMPRII; 50 nM): 1.50 ± 0.14
BMPRII expression (quantitative RT-PCR) (BMPRII; 200 nM): 1.71 ± 0.19
BMPRII expression (quantitative RT-PCR) (BMPRII; 500 nM): 2.24 ± 0.22
Smad4 expression (quantitative RT-PCR) (Smad4; 50 nM): 1.06 ± 0.03
Smad4 expression (quantitative RT-PCR) (Smad4; 200 nM): 1.37 ± 0.12
Smad4 expression (quantitative RT-PCR) (Smad4; 500 nM): 1.89 ± 0.12
Smad7 expression (quantitative RT-PCR) (Smad7; 50 nM): 1.28 ± 0.10
Smad7 expression (quantitative RT-PCR) (Smad7; 200 nM): 1.86 ± 0.19
Smad7 expression (quantitative RT-PCR) (Smad7; 500 nM): 3.06 ± 0.28
induction of COL2A1 (Western blot) (COL2A1): clear induction
TGF-β2 expression (quantitative RT-PCR) (TGF-β2; 50 nM): 1.36 ± 0.13
TGF-β2 expression (quantitative RT-PCR) (TGF-β2; 200 nM): 1.61 ± 0.11
TGF-β2 expression (quantitative RT-PCR) (TGF-β2; 500 nM): 1.88 ± 0.09
Smad6 expression (quantitative RT-PCR) (Smad6; 50 nM): 1.09 ± 0.04
Smad6 expression (quantitative RT-PCR) (Smad6; 200 nM): 1.77 ± 0.24
Smad6 expression (quantitative RT-PCR) (Smad6; 500 nM): 2.85 ± 0.31
MMP-9 expression (quantitative RT-PCR) (MMP-9; 50 nM): 0.49 ± 0.09
MMP-9 expression (quantitative RT-PCR) (MMP-9; 200 nM): 0.22 ± 0.03
inhibition of the expression of MMP-9 (MMP-9; 200 nM, RT-PCR): ~80%
MMP-9 expression (quantitative RT-PCR) (MMP-9; 500 nM): 0.19 ± 0.06
Smad3 expression (quantitative RT-PCR) (Smad3; 50 nM): 1.14 ± 0.12
Smad3 expression (quantitative RT-PCR) (Smad3; 200 nM): 1.35 ± 0.07
Smad3 expression (quantitative RT-PCR) (Smad3; 500 nM): 1.93 ± 0.16
Col II alpha1 expression (quantitative RT-PCR) (Col II alpha1; 50 nM): 4.12 ± 1.78
Col II alpha1 expression (quantitative RT-PCR) (Col II alpha1; 200 nM): 5.45 ± 1.13
Col II alpha1 expression (quantitative RT-PCR) (Col II alpha1; 500 nM): 3.18 ± 0.71
induction of Aggrecan (Western blot) (Aggrecan): clear induction
TGF-β1 expression (quantitative RT-PCR) (TGF-β1; 50 nM): 1.17 ± 0.09
TGF-β1 expression (quantitative RT-PCR) (TGF-β1; 200 nM): 1.47 ± 0.24
TGF-β1 expression (quantitative RT-PCR) (TGF-β1; 500 nM): 1.74 ± 0.17
BMP-4 expression (quantitative RT-PCR) (BMP-4; 50 nM): 1.28 ± 0.12
BMP-4 expression (quantitative RT-PCR) (BMP-4; 200 nM): 1.47 ± 0.13
BMP-4 expression (quantitative RT-PCR) (BMP-4; 500 nM): 2.49 ± 0.35
SOX-9 expression (quantitative RT-PCR) (SOX-9; 50 nM): 1.64 ± 0.17
SOX-9 expression (quantitative RT-PCR) (SOX-9; 200 nM): 2.62 ± 0.33
SOX-9 expression (quantitative RT-PCR) (SOX-9; 500 nM): 3.12 ± 0.38
induction of SOX9 (Western blot) (SOX9): clear induction
TGF-β3 expression (quantitative RT-PCR) (TGF-β3; 50 nM): 1.39 ± 0.07
TGF-β3 expression (quantitative RT-PCR) (TGF-β3; 200 nM): 1.56 ± 0.13
TGF-β3 expression (quantitative RT-PCR) (TGF-β3; 500 nM): 1.44 ± 0.11
TIMP-2 expression (quantitative RT-PCR) (TIMP-2; 50 nM): 1.78 ± 0.18
TIMP-2 expression (quantitative RT-PCR) (TIMP-2; 200 nM): 2.44 ± 0.31
TIMP-2 expression (quantitative RT-PCR) (TIMP-2; 500 nM): 4.09 ± 0.36
BMP-2 expression (quantitative RT-PCR) (BMP-2; 50 nM): 1.53 ± 0.20
BMP-2 expression (quantitative RT-PCR) (BMP-2; 200 nM): 2.52 ± 0.29
BMP-2 expression (quantitative RT-PCR) (BMP-2; 500 nM): 5.66 ± 0.67
TIMP-1 expression (quantitative RT-PCR) (TIMP-1; 50 nM): 1.88 ± 0.34
TIMP-1 expression (quantitative RT-PCR) (TIMP-1; 200 nM): 2.85 ± 0.38
TIMP-1 expression (quantitative RT-PCR) (TIMP-1; 500 nM): 4.65 ± 0.38
formation of collagen type II (COL2A1), red fluorescence [1]: induce the formation of collagen type II
